The record followed here is ChEMBL document CHEMBL1138878 (J Med Chem, 2006).

The source made the active and inactive calls. The rule behind the calls is not given here.

The subject of test [1] is HEK-293T. The test is described as follows: Inhibition of TNF-alpha-induced NF-kappaB activation in HEK293T cells. It is filed as functional, cell-based. Conditions: Homo sapiens.
Test [2] deals with HEK-293T. The test is described as follows: Loss in viability of human HEK293T cells at 15 uM after 7 hrs relative to control. It counts as functional, cell-based.
Test [3] deals with BV-2. Nature of the test: Suppression of LPS-stimulated COX2 mRNA expression in mouse BV2 cells at 0.15 uM. It is filed as functional, cell-based.
Test [4] relates to Radical scavenging activity. Nature of the test: Antioxidant activity measured as ability to react with ABTS radical cation at 15 uM by TRAP assay. It is filed as functional.
In test [5] the test system is Radical scavenging activity. Nature of the test: Antioxidant activity measured as ability to reduce ferric tripyridyltriazine complex at 15 uM by FRAP assay. It is filed as functional.
Test [6] deals with BV-2. Nature of the test: Suppression of LPS-stimulated COX2 mRNA expression in mouse BV2 cells at 20 uM. It counts as functional, cell-based.
Test [7] deals with BV-2. The test is described as follows: Suppression of LPS-stimulated COX2 mRNA expression in mouse BV2 cells at 4 uM. It is filed as functional.

`COc1ccc(/C=C/c2ccccc2F)cc1` gave an IC50 in the test with HEK-293T [1] of 150 nM. Also, the result (with HEK-293T [2]; in test [4]; in test [5]) was inactive. The outcome in the test on BV-2 [3] was Active.
In the test with HEK-293T [1], `COc1ccc(/C=C/c2ccc(O)c(O)c2)cc1` came in with an IC50 of 600 nM. The outcome in the test with HEK-293T [2] was inactive. The result in test [4] and in test [5] was Active.
For the compound `COc1ccc(/C=C/c2ccc(C)cc2)cc1`, in the test on HEK-293T [1], the IC50 turned out to be 900 nM. The result (in the test on HEK-293T [2]; in test [4]; in test [5]) was inactive.
In turn, `COc1ccc(/C=C/c2cccc(C)c2)cc1` gave an IC50 with HEK-293T [1] of 800 nM. Also, the outcome (in the test with HEK-293T [2]; in test [4]; in test [5]) was inactive.
On to `Oc1ccc(/C=C/c2cc(O)cc(O)c2)cc1` [RESVERATROL], for which the outcome (in the test with BV-2 [6]; in test [4]; in test [5]) was Active. Further, inhibition in the test on HEK-293T [1] was half-maximal at 20000 nM (IC50). Also, in the test with HEK-293T [2], the result was inactive. In the test on BV-2 [7], this compound came in with an Activity of 50%.
Compound `COc1ccc(/C=C/c2ccccc2Cl)cc1` returned an IC50 in the test on HEK-293T [1] of 1500 nM. For the same compound, the result (in the test on HEK-293T [2]; in test [4]; in test [5]) was inactive.
Turning to `COc1ccc(/C=C/c2cccc(Cl)c2)cc1`, the IC50 in the test with HEK-293T [1] was 1000 nM. Further, the outcome (in the test with HEK-293T [2]; in test [4]; in test [5]) was inactive.
With `COc1ccc(/C=C/c2cccc(O)c2O)cc1`, in the test with HEK-293T [2], the outcome was inactive. Moreover, the outcome in test [4] and in test [5] was Active.
`CN(C)c1ccc(/C=C/c2ccccc2)cc1` showed an IC50 in the test on HEK-293T [1] of 150 nM. For the same compound, in the test on HEK-293T [2], the result was inactive. The outcome (in the test on BV-2 [3]; in test [4]; in test [5]) was Active.
Compound `COc1ccc(/C=C/c2cccc(OC)c2)cc1` displayed an IC50 in the test on HEK-293T [1] of 600 nM. In addition, the result (with HEK-293T [2]; in test [4]; in test [5]) was inactive.
`COc1ccc(/C=C/c2cccc(F)c2)cc1`: the result (in the test with HEK-293T [2]; in test [4]; in test [5]) was inactive.
`CCOc1ccc(/C=C/c2ccccc2)cc1`: the result (in the test on HEK-293T [2]; in test [4]; in test [5]) was inactive.
With `C(=C\c1ccc2ccccc2c1)/c1ccccc1`, the outcome (in the test with HEK-293T [2]; in test [4]; in test [5]) was inactive.

Usually IC50 stands for the concentration at which inhibition is half-maximal.
